{"source": "patent US7083511B1", "about": "“Methods” (The University of Dundee, priority 1998, dated 2006)", "key": {"SGK2α": {"system": "SGK2α", "test": "Activation of GST-SGK2α in transfected 293 cells (Example 5)", "format": "cell-based, human", "experimental": "(§1) Cells were transiently transfected with DNA constructs expressing (A) GST-SGK1, (B), GST-SGK2α and (C) GST-SGK3. At 24 h after transfection, the cells were deprived of serum for 16 h, then exposed to 50 ng/ml IGF-1 (10 min), 400 ng/ml phorbol myristate acetate (PMA) (30 min), 10% serum (30 min), 1 μM dexamethasone (Dex, 60 min), 2 mM H2O2 (25 min), 5 μg/ml anisomycin (AN, 30 min), 0.4 M sorbitol (30 min), hypotonic stress (1 ml of water added to 3 ml of DMEM, 30 min), UV radiation (30 min after exposure to 200 J/m2) or left untreated (control). After each treatment, the cells were lysed in ice-cold lysis buffer and SGK activity in 100 μg of cell lysate protein was measured.\n(§2) FIG. 20. […] Cells were transiently transfected with DNA constructs expressing (A) GST-SGK1, (B) GST-SGK2α and (C) GST-SGK3. At 24 h after transfection, the cells were deprived of serum for 16 h. The transfectants were then pretreated for 10 min with 100 nM wortmannin or for 1 h with 100 μM LY294002 and then stimulated for 25 min with 2 mM H2O2.\n(§3) Expression of SGK isoforms in 293 cells. […] After each treatment, the cells were lysed and the activity of SGK isoforms was measured after affinity purification of the GST-fusion proteins on glutathione Sepharose, as described previously for SGK1 [18]."}, "SGK3 [1]": {"system": "SGK3", "test": "Activation of GST-SGK3 in transfected 293 cells (Example 5)", "format": "cell-based, human", "experimental": "as §1, §2, §3"}, "SGK1": {"system": "SGK1", "test": "Activation of GST-SGK1 in transfected 293 cells (Example 5)", "format": "cell-based, human", "experimental": "as §1, §2, §3"}, "[2]": {"system": "protein phosphatase 2A (PP2A)", "format": "biochemical"}, "SGK3 [3]": {"target": "T1, SGK3 (Homo sapiens, UniProt Q96BR1)", "T1 construct": "made in house; host or cells: 293 cells", "T1 sequence (Q96BR1 68-496 limits assumed)": "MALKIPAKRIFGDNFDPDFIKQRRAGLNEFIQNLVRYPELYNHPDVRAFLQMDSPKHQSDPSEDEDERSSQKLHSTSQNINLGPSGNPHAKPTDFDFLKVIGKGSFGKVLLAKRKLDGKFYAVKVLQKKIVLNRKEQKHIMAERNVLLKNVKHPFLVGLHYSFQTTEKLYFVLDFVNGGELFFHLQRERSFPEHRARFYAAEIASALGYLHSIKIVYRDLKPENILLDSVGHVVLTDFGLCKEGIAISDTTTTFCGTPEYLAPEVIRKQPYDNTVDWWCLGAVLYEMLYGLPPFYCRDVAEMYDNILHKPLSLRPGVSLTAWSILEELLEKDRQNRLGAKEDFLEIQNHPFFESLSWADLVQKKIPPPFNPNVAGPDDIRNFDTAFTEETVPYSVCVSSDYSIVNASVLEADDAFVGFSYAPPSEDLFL", "test": "Activation of SGK3 by PDK1 in vitro", "format": "biochemical", "details": "10 μM in PS/PC lipid vesicles", "experimental": "(§4) Each GST-SGK isoform (0.4 μg) was incubated for 20 min at 30° C. with protein phosphatase 2A (PP2A, 30 mU/ml) in a 10 μl incubation containing 20 mM Tris/HCl, pH 7.5, 0.1% (v/v) 2-mercaptoethanol, 0.1 mM EGTA and 1 mg/ml bovine serum albumin. After addition of microcystin-LR to 1 μM to inactivate PP2A, SGK (0.4 μg) was phosphorylated for 30 min at 30° C. in a mixture (20 μl) containing 50 mM Tris/HCl, pH 7.5, 10 mM MgCl2, 0.1% (v/v) 2-mercaptoethanol, 0.1 mM EGTA, GST-PDK1 (0.03–300 ng) diluted in Buffer C and 100 μM unlabelled ATP. SGK assays were initiated by the addition of 30 μl of a mixture containing 50 mM Tris/HCl, pH 7.5, 10 mM MgCl2, 0.1% (v/v) 2-mercaptoethanol, 0.1 mM EGTA, 100 μM [γ-^32P] ATP (500 c.p.m/pmol), 50 μM of the peptide substrate Crosstide ([…]) (SEQ. ID. NO:30) and 4.2 μM of residues 5–24 of the specific protein inhibitor of adenosine 3′5′ cyclic monophosphate-dependent protein kinase. After 10 min at 30° C., the reactions were terminated by spotting aliquots on to P81 phosphocellulose paper, followed by immediate immersion in 75 mM phosphoric acid. The papers were washed, dried and analysed. One unit (U) of SGK was that amount which phosphorylated 1 nmole of Crosstide in one min."}, "SGK2": {"target": "T2, SGK2 (Homo sapiens, UniProt Q9HBY8)", "T2 construct": "pEBG-SGK2α expressing full length of SGK2α; made in house; host or cells: 293 cells", "T2 sequence (Q9HBY8 1-367)": "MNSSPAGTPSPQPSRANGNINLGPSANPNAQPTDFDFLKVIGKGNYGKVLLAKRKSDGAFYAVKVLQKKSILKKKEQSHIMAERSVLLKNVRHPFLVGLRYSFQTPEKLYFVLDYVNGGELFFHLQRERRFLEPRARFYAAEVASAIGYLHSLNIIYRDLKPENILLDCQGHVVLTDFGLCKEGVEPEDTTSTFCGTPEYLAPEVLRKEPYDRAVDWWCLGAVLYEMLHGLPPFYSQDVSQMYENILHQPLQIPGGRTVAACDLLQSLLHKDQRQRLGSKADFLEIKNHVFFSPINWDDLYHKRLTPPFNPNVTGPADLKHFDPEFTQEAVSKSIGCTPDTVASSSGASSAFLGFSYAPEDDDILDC", "test": "Activation of SGK2 by PDK1 in vitro", "format": "biochemical", "details": "10 μM in PS/PC lipid vesicles", "experimental": "as §4"}, "SGK": {"target": "T3, SGK (Homo sapiens, UniProt O00141)", "T3 construct": "PEBG-SGK expressing full length SGK; made in house; host or cells: 293 cells", "T3 sequence (O00141 whole entry, looked up)": "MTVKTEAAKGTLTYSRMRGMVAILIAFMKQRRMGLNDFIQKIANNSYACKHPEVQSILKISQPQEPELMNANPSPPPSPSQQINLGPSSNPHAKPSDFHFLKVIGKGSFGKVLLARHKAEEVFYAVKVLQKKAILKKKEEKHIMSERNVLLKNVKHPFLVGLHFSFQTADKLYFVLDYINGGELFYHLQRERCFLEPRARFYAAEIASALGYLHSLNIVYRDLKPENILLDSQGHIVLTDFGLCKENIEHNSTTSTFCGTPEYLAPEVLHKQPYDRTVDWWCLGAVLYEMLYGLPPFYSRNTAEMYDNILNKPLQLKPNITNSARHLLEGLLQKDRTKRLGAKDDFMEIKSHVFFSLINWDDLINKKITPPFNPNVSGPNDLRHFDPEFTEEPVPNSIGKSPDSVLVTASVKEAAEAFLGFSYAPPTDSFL", "test": "Phosphorylation and activation of SGK by PDK1 in vitro", "format": "biochemical", "details": "1 μM PtdIns(3,4,5)P3, with or without PS/PC lipid vesicles", "experimental": "(A) GST-SGK (0.3 μg) was phosphorylated using GST-PDK1 (0.1 μg) and [γ-^32P] ATP (500 cpm/pmol) as described under Methods. Where indicated (+), 1 μM PtdIns(3,4,5)P3 in lipid vesicles containing phosphatidylserine (100 μM) and phosphatidylcholine (100 μM) (PS/PC) were also included. The reactions were stopped by the addition of SDS to 2% and, after heating for 5 min at 95° C., the samples were subjected to electrophoresis on 10% SDS/polyacrylamide gels, stained with Coomasssie blue and then autoradiographed. The positions of the molecular mass markers are also indicated (B) Same as (A), except that unlabelled ATP was used instead of [γ-^32P] ATP. After incubation for 10 min at 30° C., 10 μl aliquots were assayed for SGK activity using Crosstide as substrate. The results are shown ±SD for three separate experiments.\nPhosphorylation and assay of SGK. Phosphorylation was carried out at 30° C. in 50 μl incubations containing 50 mM Tris/HCl pH 7.5, 0.1 mM EGTA, 0.1% (v/v) 2-mercaptoethanol, 2.5 μM PKI, 1 μM microcystin-LR, 10 mM magnesium chloride and 100 μM ATP. Where indicated lipid vesicles containing phosphatidylcholine (100 μM), phosphatidyl serine (100 μM) and PtdIns(3,4,5)P3 (1 μM) were also included. SGK activity was assayed exactly as described for PKB [6] using the peptide […] (SEQ. ID. NO:30) (“Crosstide”) at 30 μM as substrate. […]"}, "[4]": {"details": "IGF-1 50 ng/ml 10 min, H2O2 2 mM 25 min"}, "[5]": {"details": "10% serum 30 min, 0.4 M sorbitol 30 min"}}, "note": "Starred links: 1 amine or outer side, 2 acyl side, 3 side chain; linkers in the order of their positions; H or OH if unused. Positions of bridges follow the written chain, without caps; N, C: chain ends. Non-standard residues stand in square brackets, D forms with d. Residues, ends and D or L forms follow the SMILES beside them. Adda = CO[C@@H](Cc1ccccc1)[C@@H](C)/C=C(C)/C=C/[C@H](N[*:1])[C@H](C)C(=O)[*:2]; dAsp(3S-Me) = C[C@H](C(=O)[*:3])[C@@H](N[*:1])C(=O)[*:2]; d(γGlu) = O=C(O)[C@@H](CCC(=O)[*:2])N[*:1]; NMeDha = C=C(NC)C(=O)O"}
{"compound": "OO", "note": "[hydrogen peroxide]", "values": [{"measurement": "Activation of SGK2α by the stimulus", "setting": "SGK2α; [4]", "value": 5, "unit": "fold"}, {"measurement": "Activation of SGK3 by the stimulus", "setting": "SGK3 [1]; [4]", "value": 5, "unit": "fold"}, {"measurement": "Activation of SGK1 by the stimulus", "setting": "SGK1; [4]", "value": "five fold"}]}
{"compound": "C=C1C(=O)N[C@H](C)C(=O)N[C@@H](CC(C)C)C(=O)N[C@@H](C(=O)O)[C@H](C)C(=O)N[C@@H](CCCNC(=N)N)C(=O)N[C@@H](/C=C/C(C)=C/[C@H](C)[C@H](Cc2ccccc2)OC)[C@H](C)C(=O)N[C@@H](C(=O)O)CCC(=O)N1C", "note": "[microcystin, microcystin-LR] (R[Adda][d(γGlu)][NMeDha][dA]L[dAsp(3S-Me)]-OH; lactam N-7)", "values": [{"measurement": "Effect on inactivation of GST-SGK by PP2A", "setting": "[2]", "value": "prevented"}]}
{"compound": "OC[C@@H](O)[C@@H](O)[C@H](O)[C@@H](O)CO", "note": "[sorbitol]", "values": [{"measurement": "Effect of the stimulus on SGK2α activity (in words)", "setting": "SGK2α; [5]", "value": "had no effect"}, {"measurement": "Effect of the stimulus on SGK3 activity (in words)", "setting": "SGK3 [1]; [5]", "value": "had no effect"}, {"measurement": "Effect of the stimulus on SGK1 activity (in words)", "setting": "SGK1; [5]", "value": "potently inhibited"}]}
{"compound": "PtdIns(3,4,5)P3", "values": [{"measurement": "Effect on activation of SGK3 by PDK1", "setting": "SGK3 [3]", "value": "slightly inhibited"}, {"measurement": "Effect on activation of SGK2 by PDK1", "setting": "SGK2", "value": "slightly inhibited"}, {"measurement": "Effect on phosphorylation and activation of SGK by PDK1", "setting": "SGK", "value": "unaffected"}]}
